{"source": "paper PMC4503959", "about": "“Dopamine modulates hemocyte phagocytosis via a D1-like receptor in the rice stem borer, Chilo suppressalis” (Scientific Reports, 2015)", "biological_target": "T1, CsDOP1 (Chilo suppressalis, UniProt A0A0K0QVU3)", "T1 construct": "gene DOP1; receptor in pcDNA3, stably expressed in HEK 293 cells; GPCR coupled to Gs (cAMP increase)", "T1 sequence (A0A0K0QVU3 1-409)": "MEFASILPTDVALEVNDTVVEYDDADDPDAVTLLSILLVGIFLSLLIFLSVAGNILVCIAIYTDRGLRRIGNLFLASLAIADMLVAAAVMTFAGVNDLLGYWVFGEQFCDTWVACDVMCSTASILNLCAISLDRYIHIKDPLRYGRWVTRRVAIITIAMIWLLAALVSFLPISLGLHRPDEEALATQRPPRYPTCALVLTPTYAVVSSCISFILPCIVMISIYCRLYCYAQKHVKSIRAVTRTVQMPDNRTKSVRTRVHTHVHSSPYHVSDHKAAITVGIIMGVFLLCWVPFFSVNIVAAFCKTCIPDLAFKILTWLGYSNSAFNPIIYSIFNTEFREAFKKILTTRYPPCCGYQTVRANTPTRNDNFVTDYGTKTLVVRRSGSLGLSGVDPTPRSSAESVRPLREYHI", "assay": "intracellular cAMP accumulation", "format": "cell-based"}
{"compound": "NCCc1ccc(O)c(O)c1", "note": "[dopamine]", "values": [{"measurement": "EC50", "value": 1.93, "unit": "nM"}]}
